From article PMC3278463, “Quercetin-4′-O-β-D-glucopyranoside (QODG) Inhibits Angiogenesis by Suppressing VEGFR2-Mediated Signaling in Zebrafish and Endothelial Cells” (PLoS ONE, 2012)

Biological target: VEGFR2 (KDR/Flk-1) (Homo sapiens, UniProt P35968)
Experiment: ELISA-based in vitro VEGFR2 tyrosine kinase assay (HTScan VEGFR2 kinase assay kit)
Assay type: biochemical

Chain of VEGFR2 (KDR/Flk-1) (P35968 20-1356): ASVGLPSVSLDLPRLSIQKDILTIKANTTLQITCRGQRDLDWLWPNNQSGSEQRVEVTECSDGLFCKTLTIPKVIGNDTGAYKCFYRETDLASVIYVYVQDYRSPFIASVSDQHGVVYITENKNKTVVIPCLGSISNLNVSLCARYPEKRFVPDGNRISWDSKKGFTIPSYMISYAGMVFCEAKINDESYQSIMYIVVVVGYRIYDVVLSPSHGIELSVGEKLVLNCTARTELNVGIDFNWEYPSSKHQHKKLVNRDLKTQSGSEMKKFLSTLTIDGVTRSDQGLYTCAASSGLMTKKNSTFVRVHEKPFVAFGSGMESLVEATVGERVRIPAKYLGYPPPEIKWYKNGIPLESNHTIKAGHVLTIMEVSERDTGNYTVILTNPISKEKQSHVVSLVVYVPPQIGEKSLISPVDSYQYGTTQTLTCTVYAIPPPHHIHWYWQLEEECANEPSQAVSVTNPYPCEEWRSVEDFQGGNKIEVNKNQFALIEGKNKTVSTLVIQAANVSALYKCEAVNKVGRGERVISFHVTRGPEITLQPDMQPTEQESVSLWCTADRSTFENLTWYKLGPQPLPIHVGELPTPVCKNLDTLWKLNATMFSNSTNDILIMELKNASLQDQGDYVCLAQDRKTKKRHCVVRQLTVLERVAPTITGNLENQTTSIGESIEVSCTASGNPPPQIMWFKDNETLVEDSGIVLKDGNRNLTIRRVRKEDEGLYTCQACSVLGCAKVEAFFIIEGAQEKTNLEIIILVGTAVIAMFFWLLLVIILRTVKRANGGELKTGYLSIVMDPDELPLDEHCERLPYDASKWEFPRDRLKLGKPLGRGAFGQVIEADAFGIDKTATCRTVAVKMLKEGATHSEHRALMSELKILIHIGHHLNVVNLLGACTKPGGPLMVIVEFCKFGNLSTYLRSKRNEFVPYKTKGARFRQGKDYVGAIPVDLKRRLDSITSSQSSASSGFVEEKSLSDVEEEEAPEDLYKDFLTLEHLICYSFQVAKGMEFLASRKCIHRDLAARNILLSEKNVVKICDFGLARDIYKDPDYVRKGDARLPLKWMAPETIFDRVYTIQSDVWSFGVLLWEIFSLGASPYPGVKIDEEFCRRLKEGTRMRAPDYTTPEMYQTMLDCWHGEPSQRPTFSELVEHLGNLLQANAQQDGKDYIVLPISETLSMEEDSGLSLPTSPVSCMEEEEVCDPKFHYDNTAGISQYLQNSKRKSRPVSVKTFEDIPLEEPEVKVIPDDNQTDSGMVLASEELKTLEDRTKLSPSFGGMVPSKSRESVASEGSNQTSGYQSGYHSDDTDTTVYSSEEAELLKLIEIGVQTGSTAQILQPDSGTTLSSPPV

O=c1c(O)c(-c2ccc(O[C@@H]3O[C@H](CO)[C@@H](O)[C@H](O)[C@H]3O)c(O)c2)oc2cc(O)cc(O)c12 [QODG, Quercetin-4′-O-β-D-glucopyranoside]
IC50: 0.0201 µM
